Patent publication US10344000B2, “Substituted bicyclic pyrazole compounds as RORgammaT inhibitors and uses thereof” (Merck Sharp & Dohme Corp., priority 2015, dated 2019)
Read-outs that look alike come from different tables or passages of the source.

Target: human RORgammaT-Ligand Binding Domain (LBD) (Homo sapiens (Human), UniProt P51449)
Assay: RORγ-Ligand Binding Domain TR-FRET Assay (SRC1_2 co-activator peptide)
Assay type: biochemical
Settings: HIS-tagged RORγ-LBD 3 nM, biotinylated SRC1 LXXLL peptide 100 nM, incubated overnight at 4° C.

human RORgammaT-Ligand Binding Domain (LBD), sequence (P51449 269-508): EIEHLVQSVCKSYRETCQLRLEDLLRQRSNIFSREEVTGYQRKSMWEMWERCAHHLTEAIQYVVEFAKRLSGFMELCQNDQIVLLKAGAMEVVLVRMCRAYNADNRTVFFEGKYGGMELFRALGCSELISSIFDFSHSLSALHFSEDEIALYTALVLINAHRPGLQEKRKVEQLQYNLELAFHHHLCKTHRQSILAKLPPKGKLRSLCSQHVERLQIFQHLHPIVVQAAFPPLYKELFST

| IC50 (read-out: Fret IC50) [nM] | Compound | IC50 (Fret IC50 (nM)) [nM] |
| --- | --- | --- |
| 149 | O=C(O)C1CCN(c2nn(C(=O)c3c(Cl)cccc3C3CC3)c3c2CCCC3)CC1 [Example 16A, 1-(1-(2-chloro-6-cyclopropylbenzoyl)-4,5,6,7-tetrahydro-1H-indazol-3-yl)piperidine-4-carboxylic Acid] | – |
| 14 | O=C(O)C1CC=C(c2nn(C(=O)c3c(C4CC4)ccc(F)c3Cl)c3c2CCC(CO)C3)CC1 (single isomer, unassigned) [Example 7B, 4-((R or S)-1-(2-chloro-6-cyclopropyl-3-fluorobenzoyl)-6-(hydroxymethyl)-4,5,6,7-tetrahydro-1H-indazol-3-yl)cyclohex-3-ene-1-carboxylic acid] | – |
| – | N#CC1(c2cccc(Cl)c2C(=O)n2nc(C3=CCC(C(=O)O)CC3)c3c2COCC3)CCC1 (single isomer, unassigned) [Example 2C-B, (1R or S)-4-(1-{[2-chloro-6-(1-cyanocyclobutyl)phenyl]carbonyl}-1,4,5,7-tetrahydropyrano[3,4-c]pyrazol-3-yl)cyclohex-3-ene-1-carboxylic acid] | 1050 |
| 56 | O=C(O)C1CC=C(c2nn(C(=O)c3c(Cl)cccc3C3CC3)c3c2OCCC3)CC1 (centres unmarked) [Example 15A, 4-(1-(2-chloro-6-cyclopropylbenzoyl)-1,5,6,7-tetrahydropyrano[3,2-c]pyrazol-3-yl)cyclohex-3-ene-1-carboxylic Acid] | – |
| 32 | O=C(O)C1CC=C(c2nn(C(=O)c3c(Cl)cccc3C3CC3)c3c2CCC(O)C3)CC1 (single isomer, unassigned) [Example 10B, 4-((R or S)-1-(2-chloro-6-cyclopropylbenzoyl)-6-hydroxy-4,5,6,7-tetrahydro-1H-indazol-3-yl)cyclohex-3-ene-1-carboxylic Acid] | – |
| 57 | O=C(O)C1CC=C(c2nn(C(=O)c3c(Cl)cccc3C3CC3)c3c2CCC(O)C3)CC1 (single isomer, unassigned) [Example 10A, 4-((R or S)-1-(2-chloro-6-cyclopropylbenzoyl)-6-hydroxy-4,5,6,7-tetrahydro-1H-indazol-3-yl)cyclohex-3-ene-1-carboxylic Acid] | – |
| 173 | O=C(O)C1CC=C(c2nn(C(=O)c3c(Cl)cccc3C3CC3)c3c2CCC(CO)C3)CC1 (single isomer, unassigned) [Example 6A, 4-((R or S)-1-(2-chloro-6-cyclopropylbenzoyl)-6-(hydroxymethyl)-4,5,6,7-tetrahydro-1H-indazol-3-yl)cyclohex-3-ene-1-carboxylic Acid] | – |
| 5 | O=C(O)C1CC=C(c2nn(C(=O)c3c(Cl)cccc3C3(C(F)(F)F)CC3)c3c2CCC(CO)C3)CC1 (single isomer, unassigned) [Example 7D, 4-((R or S)-1-(2-chloro-6-(1-(trifluoromethyl)cyclopropyl)benzoyl)-6-(hydroxymethyl)-4,5,6,7-tetrahydro-1H-indazol-3-yl)cyclohex-3-ene-1-carboxylic acid] | – |
| 9 | O=C(O)C1CC=C(c2nn(C(=O)c3c(Cl)cccc3C3CC3)c3c2CCC(CO)C3)CC1 (single isomer, unassigned) [Example 7A, 4-((R or S)-1-(2-chloro-6-cyclopropylbenzoyl)-6-(hydroxymethyl)-4,5,6,7-tetrahydro-1H-indazol-3-yl)cyclohex-3-ene-1-carboxylic Acid] | – |
| 1170 | N#CC1(c2cccc(Cl)c2C(=O)n2nc(C3=CCC(C(=O)O)CC3)c3c2CCC3)CCC1 (centres unmarked) [Example 1F, 4-(1-{[2-chloro-6-(1-cyanocyclobutyl)phenyl]carbonyl}-1,4,5,6-tetrahydrocyclopenta[c]pyrazol-3-yl)cyclohex-3-ene-1-carboxylic acid] | – |
| 38 | CC1(c2cccc(Cl)c2C(=O)n2nc(C3=CCC(C(=O)O)CC3)c3c2COCC3)CC1 (centres unmarked) [Example 1D, 4-(1-{[2-chloro-6-(1-methylcyclopropyl)phenyl]carbonyl}-1,4,5,7-tetrahydropyrano[3,4-c]pyrazol-3-yl)cyclohex-3-ene-1-carboxylic acid] | – |
| – | N#CC1(c2cccc(Cl)c2C(=O)n2nc(C3=CCC(C(=O)O)CC3)c3c2COCC3)CCC1 (single isomer, unassigned) [Example 2C-A, (1R or S)-4-(1-{[2-chloro-6-(1-cyanocyclobutyl)phenyl]carbonyl}-1,4,5,7-tetrahydropyrano[3,4-c]pyrazol-3-yl)cyclohex-3-ene-1-carboxylic acid] | 676 |
| 1200 | NCC1CCc2c(C3=CCC(C(=O)O)CC3)nn(C(=O)c3c(Cl)cccc3C3CC3)c2C1 (single isomer, unassigned) [Example 14A, 4-((R or S)-6-(aminomethyl)-1-(2-chloro-6-cyclopropylbenzoyl)-4,5,6,7-tetrahydro-1H-indazol-3-yl)cyclohex-3-ene-1-carboxylic Acid] | – |
| 15 | O=C(O)C1CC=C(c2nn(C(=O)c3c(Cl)cccc3C3COC3)c3c2CCC(CO)C3)CC1 (single isomer, unassigned) [Example 7C, 4-((R or S)-1-(2-chloro-6-(oxetan-3-yl)benzoyl)-6-(hydroxymethyl)-4,5,6,7-tetrahydro-1H-indazol-3-yl)cyclohex-3-ene-1-carboxylic acid] | – |
